Source: patent EP0620231B1, “Human parvovirus B19 epitope-related peptide” (Shin-Etsu Chemical Co., Ltd., priority 1993, dated 1996)

Key:
[1] = system: anti-HPV B19 antibodies; test: Secondary screening: reactivity of free synthetic peptides with anti-HPV B19 antibodies; format: binding; details: for Reactivity with Anti-HPV B19 Antibodies: free peptides, symbols ⓞ, X printed without a legend
Description: A secondary screening would be carried out to make clear the reactivity of a free peptide with the anti-HPV B19 antibodies. In this respect, the synthesis of such a free peptide should be performed while taking, into consideration, the degree of difficulty in synthesizing and purifying the corresponding amino acid sequence. Moreover, the number of amino acid residues in the free peptide should be determined after inquiring into possible structures of each amino acid sequence, i.e., the result of the secondary structure-determination using the computer program.
The foregoing primary screening was performed by preparing peptides each equally having 15 amino acid residues therein, but the secondary screening was carried out while preparing various peptides having variously changed amino acid residue numbers due to the reasons discussed above and the inventors have narrowed down to 6 amino acid sequences listed in the following Table 2.
Finally, 6 kinds of free peptides corresponding to the foregoing 6 amino acid sequences were synthesized and were inspected for the reactivity with the anti-HPV B19 antibodies. […]

[2] = system: anti-HPV B19 antibody (IgG); test: Detection Example 1: ELISA detection of immunoglobulin G (IgG) in patient serum on immobilized peptide; format: binding, human; details: Fig. 4
Description: In this example, the serum obtained from a patient infected with HPV B19 was inspected for the presence of an IgG antibody by the ELISA method. A microtiter plate made of polystyrene was used as a solid support. A peptide solution whose peptide concentration was adjusted to 10µg/mℓ with a phosphate buffer was dispensed to the wells (100µℓ each) of the plate and then the peptide was allowed to be immobilized at room temperature overnight to give an immobilized solid support. The immobilized solid support was then treated with blocking agent for inhibiting any non-specific adsorption reaction of unlinked sites present on the solid support with the IgG antibody. […]
The microtiter plate was washed 6 times with a phosphate buffer, then horseradish peroxidase (HRP)-labeled anti-human IgG antibody which was diluted 1000 times with the same buffer was dispensed to the wells (100µℓ each) and they were reacted at 37°C for one hour. […] The colored product was inspected for the presence of HRP through determination of absorbance at a wavelength of 492 nm using a microtiter plate reader.
The peptide of Formula (1) was used in this determination. […] In Fig. 4, the time after onset of illness is plotted as abscissa and the absorbance as ordinate.

[3] = system: IgM among the anti-HPV antibodies; test: Detection Example 2: ELISA detection of immunoglobulin M (IgM) in patient serum on immobilized peptide; format: binding; details: ELISA with HRP-labeled human IgM antibody; Fig. 5
Description: In this example, the serum obtained from a patient infected with HPV B19 was inspected for the presence of an IgM antibody by the ELISA method. The same procedures used in Detection Example 1 were repeated to give an immobilized solid support and to carry out the same assay except that HRP-labeled human IgM antibody was substituted for the HRP-labeled human IgG antibody used in Detection Example 1.
The peptide of Formula (1) was used in this determination. In addition, the peptides of Formulae (2) and (3) were also used as comparative peptides. The results thus obtained are plotted on Fig. 5.

[4] = system: anti-HPV B19 antibodies; test: Detection Example 3: determination of IgG with peptide immobilized through biotin-avidin affinity; format: binding, human; details: biotinylated peptide on avidin plate, Fig. 6
Description: This Example is given for illustrating a method in which the immobilized solid support is prepared by immobilizing peptide onto the solid support through the use of the biotin-avidin affinity to thus determine the IgG antibody. First of all, a 250 µg/mℓ solution of biotin-N-hydroxysuccinimide ester (NHS-Biotin) was dispensed to wells (100µℓ each) of a microtiter plate of polystyrene carrying, on the surface, amino groups and the reaction was continued at 37 °C for 2 hours. Then the microtiter plate was washed 6 times with a phosphate buffer, a 50µg/mℓ solution of avidin was dispensed to the wells (100µℓ each) and they were reacted at 37 °C for one hour.
The biotinylated peptide used herein was obtained by coupling NHS-Biotin to the N-terminal of the protected peptide prepared in the same manner used in the foregoing Peptide Preparation Example followed by removal of the protective groups and purification carried out according to the same manner used in the foregoing Peptide Preparation Example. The resulting biotinylated peptide was washed 6 times with a phosphate buffer and subjected to blocking and assay according to the same method used in Detection Example 2.
The peptide of Formula (1) was used in this determination. In addition, the peptides of Formulae (2) and (3) were also used as comparative peptides. The results thus obtained are plotted on Fig. 6. […]

Structure (SMILES)	Reactivity with Anti-HPV B19 Antibodies [1]	reactivity with the anti-HPV B19 antibodies compared with the peptide reported by Sato et al. ([1]; comparison with peptide VP2 328-344)	reactivity with the anti-HPV B19 antibody (IgG) ([2]; ELISA, absorbance at 492 nm, serum diluted 200 times, peptide 10 µg/ml)	reactivity at the initial stage of the infection (the acute stage) ([2]; IgG ELISA, time after onset of illness)	reactivity with IgM among the anti-HPV antibodies [3]	reactivity at the initial stage of the infection (the acute stage) [4]	reactivity with the anti-HPV B19 antibodies [4]
CC(C)C[C@H](N)C(=O)N[C@@H](CCCNC(=N)N)C(=O)N1CCC[C@H]1C(=O)NCC(=O)N1CCC[C@H]1C(=O)N[C@H](C(=O)N[C@@H](CO)C(=O)N[C@@H](CCC(N)=O)C(=O)N1CCC[C@H]1C(=O)N[C@@H](Cc1ccc(O)cc1)C(=O)N[C@@H](Cc1c[nH]cn1)C(=O)N[C@@H](Cc1c[nH]cn1)C(=O)N[C@@H](Cc1c[nH]c2ccccc12)C(=O)N[C@@H](CC(=O)O)C(=O)N[C@H](C(=O)N[C@@H](CC(=O)O)C(=O)N[C@@H](CCCCN)C(=O)O)[C@@H](C)O)C(C)C [Formula (3), H-Leu-Arg-Pro-Gly-Pro-Val-Ser-Gln-Pro-Tyr-His-His-Trp-Asp-Thr-Asp-Lys-OH, reference compound]	○	–	–	–	–	–	–
CC[C@H](C)[C@H](NC(=O)CNC(=O)[C@@H](NC(=O)[C@@H](NC(=O)[C@H](Cc1ccc(O)cc1)NC(=O)[C@H](CCCCN)NC(=O)[C@H](CC(=O)O)NC(=O)[C@@H](NC(=O)[C@H](CC(=O)O)NC(=O)[C@H](Cc1c[nH]c2ccccc12)NC(=O)[C@H](Cc1c[nH]cn1)NC(=O)[C@H](Cc1c[nH]cn1)NC(=O)[C@H](Cc1ccc(O)cc1)NC(=O)[C@@H]1CCCN1C(=O)[C@@H](N)CCC(N)=O)[C@@H](C)O)C(C)C)[C@@H](C)O)C(=O)N[C@@H](CC(N)=O)C(=O)N[C@@H](C)C(=O)N[C@H](C(=O)N[C@@H](CO)C(=O)N[C@@H](Cc1c[nH]cn1)C(=O)NCC(=O)N[C@@H](CCC(N)=O)C(=O)N[C@H](C(=O)N[C@H](C(=O)N[C@@H](Cc1ccc(O)cc1)C(=O)O)[C@@H](C)O)[C@@H](C)O)[C@@H](C)CC [Formula (1)]	ⓞ	extremely high	high reactivity	strong reactivity	high reactivity	strong reactivity	high reactivity
